{
  "source": "paper PMC11842588",
  "about": "“A first-in-class selective inhibitor of ERK1/2 and ERK5 overcomes drug resistance with a single-molecule strategy” (Signal Transduction and Targeted Therapy, 2025)",
  "key": {"[1]": {"molecular_target": "T1, JAK2(h) (Homo sapiens, UniProt O60674)", "T1 construct": "purchased Eurofins Cerep SA (KinaseProfiler)", "T1 sequence (O60674 whole entry)": "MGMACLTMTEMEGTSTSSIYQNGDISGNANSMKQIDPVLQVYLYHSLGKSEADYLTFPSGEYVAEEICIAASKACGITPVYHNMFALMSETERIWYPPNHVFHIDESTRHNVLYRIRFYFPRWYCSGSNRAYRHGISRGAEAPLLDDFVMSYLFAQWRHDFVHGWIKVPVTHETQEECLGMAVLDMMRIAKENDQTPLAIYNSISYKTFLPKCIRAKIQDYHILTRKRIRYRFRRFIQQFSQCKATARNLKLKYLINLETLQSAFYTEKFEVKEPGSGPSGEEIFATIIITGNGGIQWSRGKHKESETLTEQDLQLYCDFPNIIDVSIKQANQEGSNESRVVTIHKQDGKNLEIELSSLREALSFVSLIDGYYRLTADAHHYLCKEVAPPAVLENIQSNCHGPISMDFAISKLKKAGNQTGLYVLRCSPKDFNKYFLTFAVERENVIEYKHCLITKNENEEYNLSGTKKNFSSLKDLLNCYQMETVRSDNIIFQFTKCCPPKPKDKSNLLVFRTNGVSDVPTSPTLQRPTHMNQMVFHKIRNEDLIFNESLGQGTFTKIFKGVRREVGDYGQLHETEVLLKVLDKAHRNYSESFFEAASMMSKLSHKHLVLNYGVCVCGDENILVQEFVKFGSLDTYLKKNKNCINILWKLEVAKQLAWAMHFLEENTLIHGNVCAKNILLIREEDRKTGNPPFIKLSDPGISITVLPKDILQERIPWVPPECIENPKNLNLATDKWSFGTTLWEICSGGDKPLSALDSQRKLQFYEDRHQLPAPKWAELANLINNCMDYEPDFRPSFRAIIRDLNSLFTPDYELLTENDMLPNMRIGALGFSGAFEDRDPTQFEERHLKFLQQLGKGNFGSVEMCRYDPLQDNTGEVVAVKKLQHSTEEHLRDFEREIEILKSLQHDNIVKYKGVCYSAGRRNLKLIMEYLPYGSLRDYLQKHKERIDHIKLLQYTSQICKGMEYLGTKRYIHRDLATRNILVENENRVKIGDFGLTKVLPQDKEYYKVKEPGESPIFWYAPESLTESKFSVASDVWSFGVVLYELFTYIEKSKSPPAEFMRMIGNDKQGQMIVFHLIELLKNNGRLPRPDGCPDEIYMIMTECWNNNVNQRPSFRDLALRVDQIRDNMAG", "assay": "Kinase profiling", "type": "biochemical", "description": "(§1) 380 kinases inhibitory activities of SKLB-D18 were conducted by Eurofins Cerep SA. The result was illustrated by kinase tree (http://www.kinhub.org/kinmap/)."}, "[2]": {"molecular_target": "T2, EphB1(h) (Homo sapiens, UniProt P54762)", "T2 construct": "purchased Eurofins Cerep SA (KinaseProfiler)", "assay": "Kinase profiling", "type": "biochemical", "description": "as §1"}, "[3]": {"molecular_target": "T3, SLK(h) (Homo sapiens, UniProt Q9H2G2)", "T3 construct": "purchased Eurofins Cerep SA (KinaseProfiler)", "T3 sequence (Q9H2G2 whole entry)": "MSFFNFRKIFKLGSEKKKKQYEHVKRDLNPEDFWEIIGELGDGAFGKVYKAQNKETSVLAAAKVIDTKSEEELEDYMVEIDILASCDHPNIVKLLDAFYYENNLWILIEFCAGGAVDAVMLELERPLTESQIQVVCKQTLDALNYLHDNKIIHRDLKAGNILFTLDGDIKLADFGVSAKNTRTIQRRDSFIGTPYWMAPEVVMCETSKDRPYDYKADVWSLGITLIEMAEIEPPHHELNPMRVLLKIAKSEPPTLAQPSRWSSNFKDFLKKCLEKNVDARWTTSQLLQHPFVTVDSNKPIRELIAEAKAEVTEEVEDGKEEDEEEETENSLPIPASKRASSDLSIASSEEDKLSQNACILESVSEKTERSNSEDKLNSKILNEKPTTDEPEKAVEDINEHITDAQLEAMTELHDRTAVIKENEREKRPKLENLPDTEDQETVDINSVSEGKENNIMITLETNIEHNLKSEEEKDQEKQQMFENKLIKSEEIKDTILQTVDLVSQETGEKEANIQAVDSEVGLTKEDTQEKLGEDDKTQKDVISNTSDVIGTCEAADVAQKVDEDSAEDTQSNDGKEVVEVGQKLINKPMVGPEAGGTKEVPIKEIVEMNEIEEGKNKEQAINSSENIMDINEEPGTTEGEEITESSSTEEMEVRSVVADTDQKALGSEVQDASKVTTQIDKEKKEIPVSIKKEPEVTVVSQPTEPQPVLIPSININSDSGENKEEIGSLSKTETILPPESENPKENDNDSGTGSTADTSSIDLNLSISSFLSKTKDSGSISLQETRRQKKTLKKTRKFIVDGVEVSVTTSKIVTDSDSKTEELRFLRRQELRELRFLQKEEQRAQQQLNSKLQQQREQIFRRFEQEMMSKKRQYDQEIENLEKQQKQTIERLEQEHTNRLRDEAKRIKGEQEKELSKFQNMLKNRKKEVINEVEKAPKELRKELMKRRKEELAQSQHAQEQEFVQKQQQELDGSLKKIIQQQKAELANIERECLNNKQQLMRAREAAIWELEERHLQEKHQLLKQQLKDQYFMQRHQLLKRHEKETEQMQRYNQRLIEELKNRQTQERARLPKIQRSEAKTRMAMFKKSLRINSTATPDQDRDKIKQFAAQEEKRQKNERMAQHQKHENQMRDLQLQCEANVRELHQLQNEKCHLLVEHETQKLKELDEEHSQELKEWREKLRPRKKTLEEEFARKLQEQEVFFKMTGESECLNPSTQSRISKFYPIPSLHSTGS", "assay": "Kinase profiling", "type": "biochemical", "description": "as §1"}, "[4]": {"molecular_target": "T4, Pim-1(h) (Homo sapiens, UniProt P11309)", "T4 construct": "purchased Eurofins Cerep SA (KinaseProfiler)", "T4 sequence (P11309 whole entry)": "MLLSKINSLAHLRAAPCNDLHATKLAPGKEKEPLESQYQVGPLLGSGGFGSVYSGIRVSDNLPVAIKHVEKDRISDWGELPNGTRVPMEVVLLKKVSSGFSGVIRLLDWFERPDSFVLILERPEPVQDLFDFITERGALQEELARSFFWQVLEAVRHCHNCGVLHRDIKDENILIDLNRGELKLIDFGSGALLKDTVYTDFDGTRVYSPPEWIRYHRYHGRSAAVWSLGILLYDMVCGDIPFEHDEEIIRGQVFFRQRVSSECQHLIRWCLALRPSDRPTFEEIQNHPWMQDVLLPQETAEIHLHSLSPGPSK", "assay": "Kinase profiling", "type": "biochemical", "description": "as §1"}, "[5]": {"molecular_target": "T5, STK25(h) (Homo sapiens, UniProt O00506)", "T5 construct": "purchased Eurofins Cerep SA (KinaseProfiler)", "assay": "Kinase profiling", "type": "biochemical", "description": "as §1"}, "[6]": {"molecular_target": "T6, MSSK1(h) (Homo sapiens, UniProt Q9UPE1)", "T6 construct": "purchased Eurofins Cerep SA (KinaseProfiler)", "T6 sequence (Q9UPE1 whole entry)": "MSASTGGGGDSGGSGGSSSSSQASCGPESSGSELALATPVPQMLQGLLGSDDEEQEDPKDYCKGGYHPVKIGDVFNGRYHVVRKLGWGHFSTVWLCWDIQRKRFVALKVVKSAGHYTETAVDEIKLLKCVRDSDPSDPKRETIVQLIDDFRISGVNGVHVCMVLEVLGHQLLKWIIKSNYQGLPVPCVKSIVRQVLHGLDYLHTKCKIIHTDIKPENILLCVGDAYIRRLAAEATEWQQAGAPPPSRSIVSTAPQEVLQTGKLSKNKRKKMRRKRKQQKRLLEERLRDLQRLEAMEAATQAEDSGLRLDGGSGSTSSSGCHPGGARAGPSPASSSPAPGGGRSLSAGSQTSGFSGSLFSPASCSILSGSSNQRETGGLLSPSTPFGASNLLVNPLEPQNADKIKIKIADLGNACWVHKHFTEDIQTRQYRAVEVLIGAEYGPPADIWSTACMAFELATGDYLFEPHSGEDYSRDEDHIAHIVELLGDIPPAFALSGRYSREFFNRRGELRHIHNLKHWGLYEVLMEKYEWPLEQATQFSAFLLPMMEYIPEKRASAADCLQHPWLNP", "assay": "Kinase profiling", "type": "biochemical", "description": "as §1"}, "[7]": {"molecular_target": "T7, CK1α(h) (Homo sapiens, UniProt P48729)", "T7 construct": "purchased Eurofins Cerep SA (KinaseProfiler)", "assay": "Kinase profiling", "type": "biochemical", "description": "as §1"}, "[8]": {"molecular_target": "T8, GSK3β(h) (Homo sapiens, UniProt P49841)", "T8 construct": "purchased Eurofins Cerep SA (KinaseProfiler)", "assay": "Kinase profiling", "type": "biochemical", "description": "as §1"}, "[9]": {"molecular_target": "T9, MST4(h) (Homo sapiens, UniProt Q9P289)", "T9 construct": "purchased Eurofins Cerep SA (KinaseProfiler)", "T9 sequence (Q9P289 whole entry)": "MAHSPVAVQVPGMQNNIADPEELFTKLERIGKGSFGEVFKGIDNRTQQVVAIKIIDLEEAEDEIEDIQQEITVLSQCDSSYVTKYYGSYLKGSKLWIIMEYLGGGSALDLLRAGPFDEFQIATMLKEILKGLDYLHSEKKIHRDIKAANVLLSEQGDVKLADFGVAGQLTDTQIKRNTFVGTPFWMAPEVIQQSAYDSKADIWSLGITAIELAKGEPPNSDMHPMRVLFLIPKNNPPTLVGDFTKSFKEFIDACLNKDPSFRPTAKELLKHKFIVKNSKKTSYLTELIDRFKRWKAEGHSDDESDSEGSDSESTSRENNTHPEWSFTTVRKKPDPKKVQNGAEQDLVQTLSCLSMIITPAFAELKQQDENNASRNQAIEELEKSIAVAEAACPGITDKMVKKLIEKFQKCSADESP", "assay": "Kinase profiling", "type": "biochemical", "description": "as §1"}, "[10]": {"molecular_target": "T10, PhKγ1(h) (Homo sapiens, UniProt Q16816)", "T10 construct": "purchased Eurofins Cerep SA (KinaseProfiler)", "assay": "Kinase profiling", "type": "biochemical", "description": "as §1"}, "[11]": {"molecular_target": "T11, IGF-1R(h), activated (Homo sapiens, UniProt P08069)", "T11 construct": "purchased Eurofins Cerep SA (KinaseProfiler)", "assay": "Kinase profiling", "type": "biochemical", "description": "as §1"}, "[12]": {"molecular_target": "T12, CaMKIδ(h) (Homo sapiens, UniProt Q8IU85)", "T12 construct": "purchased Eurofins Cerep SA (KinaseProfiler)", "assay": "Kinase profiling", "type": "biochemical", "description": "as §1"}, "[13]": {"molecular_target": "T13, EphB3(h) (Homo sapiens, UniProt P54753)", "T13 construct": "purchased Eurofins Cerep SA (KinaseProfiler)", "assay": "Kinase profiling", "type": "biochemical", "description": "as §1"}, "[14]": {"molecular_target": "T14, PKCα(h) (Homo sapiens, UniProt P17252)", "T14 construct": "purchased Eurofins Cerep SA (KinaseProfiler)", "assay": "Kinase profiling", "type": "biochemical", "description": "as §1"}, "[15]": {"molecular_target": "T15, TrkC(h) (Homo sapiens, UniProt Q16288)", "T15 construct": "purchased Eurofins Cerep SA (KinaseProfiler)", "assay": "Kinase profiling", "type": "biochemical", "description": "as §1"}, "[16]": {"molecular_target": "T16, MINK(h) (Homo sapiens, UniProt Q8N4C8)", "T16 construct": "purchased Eurofins Cerep SA (KinaseProfiler)", "assay": "Kinase profiling", "type": "biochemical", "description": "as §1"}, "[17]": {"molecular_target": "T17, MARK3(h) (Homo sapiens, UniProt P27448)", "T17 construct": "purchased Eurofins Cerep SA (KinaseProfiler)", "T17 sequence (P27448 whole entry)": "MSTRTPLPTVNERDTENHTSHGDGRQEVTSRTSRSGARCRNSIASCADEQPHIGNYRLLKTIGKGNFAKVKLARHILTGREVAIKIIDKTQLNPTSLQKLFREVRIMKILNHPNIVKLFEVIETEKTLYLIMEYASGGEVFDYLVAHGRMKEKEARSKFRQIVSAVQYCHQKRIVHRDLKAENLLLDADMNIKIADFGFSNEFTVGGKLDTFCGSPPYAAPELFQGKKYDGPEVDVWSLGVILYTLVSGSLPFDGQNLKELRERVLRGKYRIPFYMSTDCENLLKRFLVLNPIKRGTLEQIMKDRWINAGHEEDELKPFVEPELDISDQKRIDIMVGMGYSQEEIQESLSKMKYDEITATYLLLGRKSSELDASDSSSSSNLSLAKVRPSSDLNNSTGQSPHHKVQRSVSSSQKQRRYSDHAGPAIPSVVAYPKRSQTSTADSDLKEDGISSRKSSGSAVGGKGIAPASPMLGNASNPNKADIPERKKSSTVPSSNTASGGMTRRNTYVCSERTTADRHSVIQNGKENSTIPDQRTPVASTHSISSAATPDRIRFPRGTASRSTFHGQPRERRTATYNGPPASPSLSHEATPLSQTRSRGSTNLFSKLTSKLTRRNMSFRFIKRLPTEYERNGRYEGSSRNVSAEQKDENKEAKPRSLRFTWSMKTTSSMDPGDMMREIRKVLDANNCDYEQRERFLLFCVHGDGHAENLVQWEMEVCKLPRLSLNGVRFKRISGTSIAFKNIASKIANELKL", "assay": "Kinase profiling", "type": "biochemical", "description": "as §1"}, "[18]": {"molecular_target": "T18, MEKK2(h) (Homo sapiens, UniProt Q9Y2U5)", "T18 construct": "purchased Eurofins Cerep SA (KinaseProfiler)", "T18 sequence (Q9Y2U5 whole entry)": "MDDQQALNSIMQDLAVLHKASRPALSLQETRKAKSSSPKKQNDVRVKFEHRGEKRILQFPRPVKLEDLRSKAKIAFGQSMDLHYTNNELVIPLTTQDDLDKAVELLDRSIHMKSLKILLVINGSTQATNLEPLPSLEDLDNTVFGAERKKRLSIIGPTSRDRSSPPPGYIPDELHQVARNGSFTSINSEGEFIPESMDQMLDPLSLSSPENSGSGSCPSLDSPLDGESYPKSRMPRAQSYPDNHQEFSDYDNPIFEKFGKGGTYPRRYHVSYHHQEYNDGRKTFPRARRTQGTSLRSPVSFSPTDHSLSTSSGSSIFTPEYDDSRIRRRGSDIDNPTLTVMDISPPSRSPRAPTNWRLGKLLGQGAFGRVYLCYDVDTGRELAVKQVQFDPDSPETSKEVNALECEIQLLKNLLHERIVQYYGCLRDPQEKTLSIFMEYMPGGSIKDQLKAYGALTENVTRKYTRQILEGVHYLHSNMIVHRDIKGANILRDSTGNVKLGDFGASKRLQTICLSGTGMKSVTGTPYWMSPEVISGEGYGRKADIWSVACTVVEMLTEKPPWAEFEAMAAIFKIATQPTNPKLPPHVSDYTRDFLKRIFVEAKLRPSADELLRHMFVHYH", "assay": "Kinase profiling", "type": "biochemical", "description": "as §1"}, "[19]": {"molecular_target": "T19, IRR(h) (Homo sapiens, UniProt P14616)", "T19 construct": "purchased Eurofins Cerep SA (KinaseProfiler)", "assay": "Kinase profiling", "type": "biochemical", "description": "as §1"}, "[20]": {"molecular_target": "T20, JNK3(h) (Homo sapiens, UniProt P53779)", "T20 construct": "purchased Eurofins Cerep SA (KinaseProfiler)", "assay": "Kinase profiling", "type": "biochemical", "description": "as §1"}, "[21]": {"molecular_target": "T21, PDHK4(h) (Homo sapiens, UniProt Q16654)", "T21 construct": "purchased Eurofins Cerep SA (KinaseProfiler)", "assay": "Kinase profiling", "type": "biochemical", "description": "as §1"}, "[22]": {"molecular_target": "T22, ALK4(h) (Homo sapiens, UniProt P36896)", "T22 construct": "purchased Eurofins Cerep SA (KinaseProfiler)", "assay": "Kinase profiling", "type": "biochemical", "description": "as §1"}, "[23]": {"molecular_target": "T23, PTK5(h) (Homo sapiens, UniProt P42685)", "T23 construct": "purchased Eurofins Cerep SA (KinaseProfiler)", "assay": "Kinase profiling", "type": "biochemical", "description": "as §1"}, "[24]": {"molecular_target": "T24, PKCγ(h) (Homo sapiens, UniProt P05129)", "T24 construct": "purchased Eurofins Cerep SA (KinaseProfiler)", "assay": "Kinase profiling", "type": "biochemical", "description": "as §1"}, "[25]": {"test_system": "Ki-67", "assay": "IHC of Ki-67 in xenograft tumor tissue", "type": "in vivo, nude mice (BALB/c-nu)", "details": "50 mg/kg", "description": "All procedures were performed in accordance with the Laboratory Animals Welfare Act, the Guide for the Care and Use of Laboratory Animals and the Guidelines and Policies. The rodent experiment was approved by IACUC (Institutional Animal Care and Use Committee) in the Experimental Animal Ethics Committee of West China Hospital (Approval No. 2021672A). 48 female nude mice (BALB/c-nu, 5 weeks, 15–18 g, purchased from Beijing HFK Bio-Technology Co., LTD) were acclimatized for one week in an SPF-grade animal facility (ventilated, 20–25 °C, 50–60% humidity). […] When the tumor volume reached approximately 100 mm^3 (V = L × W^2/2), the mice were randomly divided into six groups (n = 8 per group): (1) Control group (normal saline); (2) 25 mg/kg SKLB-D18-treated group; (3) 50 mg/kg SKLB-D18-treated group; (4) 50 mg/kg BVD-523-treated group; (5) 50 mg/kg XMD8-92-treated group; (6) BVD-523 (50 mg/kg) and XMD8-92 (50 mg/kg) combined treatment group. Drugs were freshly prepared with 5% DMSO, 10% Solutol HS-15, and 85% normal saline on the day of administration. […] And the body weight and tumor volume of mice were measured every three days. […]\nBriefly, tumor tissues were dehydrated, embedded, and sectioned. […] Microscopic analysis and imaging were performed, analyzed with ImageJ, and statistical graphs were created using GraphPad Prism 9.5. […]"}, "[26]": {"assay": "H&E staining of major organs", "type": "in vivo", "details": "xenograft study, heart, liver, spleen, lung, kidney", "description": "All procedures were performed in accordance with the Laboratory Animals Welfare Act, the Guide for the Care and Use of Laboratory Animals and the Guidelines and Policies. The rodent experiment was approved by IACUC (Institutional Animal Care and Use Committee) in the Experimental Animal Ethics Committee of West China Hospital (Approval No. 2021672A). 48 female nude mice (BALB/c-nu, 5 weeks, 15–18 g, purchased from Beijing HFK Bio-Technology Co., LTD) were acclimatized for one week in an SPF-grade animal facility (ventilated, 20–25 °C, 50–60% humidity). […] When the tumor volume reached approximately 100 mm^3 (V = L × W^2/2), the mice were randomly divided into six groups (n = 8 per group): (1) Control group (normal saline); (2) 25 mg/kg SKLB-D18-treated group; (3) 50 mg/kg SKLB-D18-treated group; (4) 50 mg/kg BVD-523-treated group; (5) 50 mg/kg XMD8-92-treated group; (6) BVD-523 (50 mg/kg) and XMD8-92 (50 mg/kg) combined treatment group. Drugs were freshly prepared with 5% DMSO, 10% Solutol HS-15, and 85% normal saline on the day of administration. Intragastric administration occurred once daily at the same time for 16 consecutive days. And the body weight and tumor volume of mice were measured every three days. […]\nFirst, the fixed major organs of nude mice were dehydrated, embedded, and sectioned. […] Staining results and tissue morphology were analyzed under a microscope."}},
  "data": [
    {"molecule": "CN(C)Cc1cccc(Nc2ncc(Cl)c(-c3csc(C(=O)NN4CCOCC4)c3)n2)c1", "note": "[SKLB-D18, 4-(5-chloro-2-((3-((dimethylamino)methyl)phenyl)amino)pyrimidin-4-yl)-N-morpholinothiophene-2-carboxamide]", "values": [
      {"measurement": "inhibition at 1 µM", "setting": "[1]", "result": 67, "unit": "%"},
      {"measurement": "inhibition at 1 µM", "setting": "[2]", "result": 23, "unit": "%"},
      {"measurement": "inhibition at 1 µM", "setting": "[3]", "result": 4, "unit": "%"},
      {"measurement": "inhibition at 1 µM", "setting": "[4]", "result": 37, "unit": "%"},
      {"measurement": "inhibition at 1 µM", "setting": "[5]", "result": 7, "unit": "%"},
      {"measurement": "inhibition at 1 µM", "setting": "[6]", "result": -19, "unit": "%"},
      {"measurement": "inhibition at 1 µM", "setting": "[7]", "result": 8, "unit": "%"},
      {"measurement": "inhibition at 1 µM", "setting": "[8]", "result": 68, "unit": "%"},
      {"measurement": "inhibition at 1 µM", "setting": "[9]", "result": 15, "unit": "%"},
      {"measurement": "inhibition at 1 µM", "setting": "[10]", "result": 63, "unit": "%"},
      {"measurement": "inhibition at 1 µM", "setting": "[11]", "result": 0, "unit": "%"},
      {"measurement": "inhibition at 1 µM", "setting": "[12]", "result": 47, "unit": "%"},
      {"measurement": "inhibition at 1 µM", "setting": "[13]", "result": 3, "unit": "%"},
      {"measurement": "inhibition at 1 µM", "setting": "[14]", "result": 21, "unit": "%"},
      {"measurement": "inhibition at 1 µM", "setting": "[15]", "result": 43, "unit": "%"},
      {"measurement": "inhibition at 1 µM", "setting": "[16]", "result": 22, "unit": "%"},
      {"measurement": "inhibition at 1 µM", "setting": "[17]", "result": 68, "unit": "%"},
      {"measurement": "inhibition at 1 µM", "setting": "[18]", "result": 53, "unit": "%"},
      {"measurement": "inhibition at 1 µM", "setting": "[19]", "result": 57, "unit": "%"},
      {"measurement": "inhibition at 1 µM", "setting": "[20]", "result": 66, "unit": "%"},
      {"measurement": "inhibition at 1 µM", "setting": "[21]", "result": 5, "unit": "%"},
      {"measurement": "inhibition at 1 µM", "setting": "[22]", "result": 26, "unit": "%"},
      {"measurement": "inhibition at 1 µM", "setting": "[23]", "result": 35, "unit": "%"},
      {"measurement": "inhibition at 1 µM", "setting": "[24]", "result": 27, "unit": "%"},
      {"measurement": "Ki-67 positive area", "setting": "[25]", "result": "less than 20%"},
      {"measurement": "toxicity to major organs (H&E staining)", "setting": "[26]", "result": "no significant toxicity"}
    ]}
  ]
}
